Measurements: patent publication US20190358220A1, “INTEGRATOR INHIBITORS AND METHODS FOR THEIR USE” (UNIVERSITY OF MIAMI, priority 2017, published 2019)

Key:
[1] = test system: EGF-responsive genes in A549 lung adenocarcinoma cells; test: EGF-induced gene expression by Chromatin RNA-seq in A549 cells; format: cell-based, human; settings: A549 cells (KRAS G12S), treated prior to stimulation with EGF
Protocol: In brief, the NEBNext Ultra RNA and the ChIP-Seq Library Prep Kits for Illumina (E7420, E6240, from New England Biolabs) were used to prepare the sequencing library. The sequencing was performed as a 75 bp single-end run using the NextSeq 500 High Output Kit provided by the Oncogenomics Core Facility at the Sylvester Comprehensive Cancer Center in the University of Miami Miller School of Medicine.
RNA-seq data were aligned to human genome (hg19 version) using TopHat2, and differential expression analysis was performed using Cuffdiff 2.2.1 with default parameters. […] The differential expression was considered significant when the q-value <0.05, fold change >2 and FPKM >1 for protein coding genes and FPKM >0.5 for eRNAs. Heat maps were generated using SpotFire with Decision Site for Functional Genomics (SpotFire Inc., Somerville, Mass., USA).

RSK1 phosphorylation = test: Immunoblot of downstream MAPK target phosphorylation in HeLa cells; format: cell-based, human; settings: SCH772984 1 μM for 3 hours
Protocol: FIG. 4A is an immunoblot of HeLa cells that were transduced with doxycycline-inducible shRNAs targeting INTS11 and treated with ERK inhibitor (SCH772984, 1 μM) for 3 hours.
Integrator depletion abrogates EGF transcriptional responsiveness in HeLa cells. See Gardini, A. et al Molecular Cell 56, 128-139 (2014). To dissect the signaling pathway that mediates the EGF transcriptional response of immediate early genes (IEGs), HeLa cells were treated with an ERK1/2 inhibitor (SCH772984) prior to EGF stimulation and analyzed EGF responsive gene expression using Chromatin RNA-sequencing (ChromRNA-seq), which provides for an enriched fraction of nascent RNAs. There were 106 genes that consistently respond (2-fold induction) to EGF stimulation at the 20-minute time point.
Antibodies used for CHIP and immunoblot include: INTS11 (A301-274A, Bethyl Laboratories, Inc., Montgomery, Tex.), RNAPII (sc-899, Santa Cruz Biotechnology, Paso Robles, Calif.), GAPDH (sc-25778, Santa Cruz), phospo-ERK1/2 (#9101, Cell Signaling technology), ERK1/2 (#9102, Cell Signaling technology), Phospho-p90RSK (Thr359) (#8753, Cell Signaling technology), and RSK1 (#9333, Cell Signaling technology). Flag M2-conjugated beads (Sigma, 2220) were used for immunoprecipitation.

[2] = test system: Integrator and RNAPII recruitment to EGF-responsive IEGs; test: ChIP-seq of INTS11 and RNAPII recruitment after EGF stimulation; format: cell-based, human
Protocol: Diagrams of EGR1, FOSB and NR4A1 genomic regions are indicated at the bottom. FIGS. 5B and 5C show the average profiles of INTS11 (top) and RNAPII (bottom) recruitment at 106 EGF-induced genes (FIG. 5B) and 106 control genes (FIG. 5C). ChIP-seq was performed before and after 20 minutes of EGF-induction, with or without the presence of ERK inhibitor. The average analysis was performed using two independent biological replicates.
ChIP-seq for INTS11 and RNAPII was performed before and after treatment of cells with ERK1/2 inhibitor (SCH772984). […] This was manifested by decreased occupancy of Integrator and RNAPII at the 5′-end and body of EGF-responsive genes (FIGS. 5A-5C). […]
ChIP-seq data analysis was performed as previously described. […] In brief, FASTQ data were processed with Trimmomatic to remove low-quality reads and then aligned to the human genome hg19 using bowtie2. […] In brief, RNAPII ChIP-seq density at the TSS (−30 bp to +300 bp) was divided by the read density over the rest of the gene body, plus an additional 1 kb beyond the transcription end site (TES). The log10(ratio) of genes (EGF, control and ERK inhibitor treatment) were calculated using all different isoforms available in the Hg19 RefSeq Annotation Table that were considered express (FPKM >1 in EGF treatment conditions) in our analysis.

[3] = test system: IMR90 human fibroblasts and BEAS-2B normal lung epithelial cells; test: Cell viability of normal cells; format: cell-based; settings: IMR90 and BEAS-2B
Protocol: (§1) The cells were plated 5000 per well in 96-well black plates with a clear bottom and maintained under normal conditions over night before the drug treatment. The cell viability was measured 4 days after treatment using PrestoBlue (Invitrogen cat No A13261). GraphPad Prism software was used to generate dose response curves and calculate IC50 values. Each experiment was repeated at least three times.

[4] = test system: lung cancer cell lines (NCI-H1975, NCI-H2444, NCI-H1650) and melanoma cell lines (SK-MEL28 and A375); test: Viability assay (PrestoBlue), MAPK-driven cancer cell lines; format: cell-based; settings: all MAPK-driven cancer cell lines, 96 hours treatment
Protocol: Cell viability was determined by Prestoblue and presented as percent of vehicle. Three independent biological replicates were used to calculate the average. […] Two-sided t-test, **P<0.01 for corresponding comparisons.
The NCI-H1650 lung cancer cell line containing heterozygous deletion in EGFR (delE746-A750) was treated with two different siRNAs to INTS11, or control non-targeting siRNAs, and cellular proliferation was measured using 5-ethynyl-2′-deoxyuridine (EdU), a sensitive and quantitative measure of cellular growth. […] SK-MEL28 also contains a homozygous EGFR mutation (P753S).
as §1

O=C(Nc1ccc2[nH]nc(-c3ccncc3)c2c1)[C@@H]1CCN(CC(=O)N2CCN(c3ccc(-c4ncccn4)cc3)CC2)C1 [SCH772984]
EGF responsiveness of EGF-responsive genes [1]: specifically diminished the EGF responsiveness of most EGF-responsive genes | phosphorylation of RSK1 (RSK1 phosphorylation): abrogation of downstream MAPK-mediated target phosphorylation of RSK1 | recruitment of Integrator and RNAPII to EGF-responsive IEGs ([2]; before and after 20 minutes of EGF induction): diminished the immediate-early recruitment of Integrator and RNAPII | transcriptional elongation (RNAPII traveling ratio) ([2]; following EGF induction): substantially decreased transcriptional elongation

O=C1C(=O)c2cccnc2-c2ncccc21 [phendione, 1,10-phenanthroline-5,6-dione]
sensitivity of normal cells (cell viability) [3]: sensitive to phendione | IC50 of viability compared with MAPK pathway inhibitors [4]: IC50s less than or equal to that of MAPK pathway inhibitors
